Assay results reported in article PMC12217463, “Functional and structural analyses of amino acid sequence variation in PDC β-lactamase reveal different mechanistic pathways toward cefiderocol resistance in Pseudomonas aeruginosa” (Antimicrobial Agents and Chemotherapy, 2025).
Converted amounts (≈) assume the structure as drawn.

Experiments:
[1] = system: E. cloacae AmpC variant with a ∆A294-P295 deletion; set-up: method as in PMID 32284381; details: relative to the parent enzyme; cited from earlier work
PAO1 + blaPDC P215L = experiment: MIC, broth microdilution; format: cell-based; details: Pseudomonas aeruginosa
Text: (§1) We took advantage of a previously constructed and characterized laboratory collection of recombinant P. aeruginosa PAO1 isolates expressing different blaPDC variants, but specifically enriched for this work with additional variants, following the previously described methodology ([17]). […] The final collection comprised 40 recombinant isolates (20 in PAO1 and 20 in PAO ΔpiuC) producing the wild-type PDC-1 variant from PAO1 and 19 derivatives carrying specific amino acid substitutions previously associated with the development of resistance to ceftazidime/avibactam, ceftolozane/tazobactam, or cefiderocol: T70I, F121L, P153L, G156D, A200T, G202S, ΔG202-E219, G214R, P215L, P215S, ΔP215-G222, D217N, E219K, E219G, E219D, S226ins, L293P, F121L + E219K, and F121L + G222S.
(§2) The MICs of ceftazidime, ceftazidime/avibactam, ceftolozane/tazobactam, cefepime, and cefiderocol were determined in triplicate, for all isolates, by reference broth microdilution assays. Avibactam and tazobactam were fixed at 4 mg/L. All assays were performed using cation-adjusted Mueller-Hinton broth (CAMHB), except for cefiderocol, which was determined in all cases using iron-depleted CAMHB, prepared according to CLSI M100 guidelines ([40]). EUCAST v.15.0 clinical breakpoints and guidelines (http://www.eucast.org/clinical_breakpoints/) were used for reference purposes. Reference strains Escherichia coli ATCC 25922, Klebsiella pneumoniae ATCC 700603, and P. aeruginosa ATCC 27853 were used as controls.

PAO1 + blaPDC ∆P215-G222 = experiment: MIC, broth microdilution; format: cell-based; details: Pseudomonas aeruginosa, avibactam and tazobactam fixed at 4 mg/L, FDC in iron-depleted CAMHB
Text: as §1, §2

PAO1 + blaPDC G156D = experiment: MIC, broth microdilution; format: cell-based; details: Pseudomonas aeruginosa
Text: as §1, §2

PAO1 + blaPDC T70I = experiment: MIC, broth microdilution; format: cell-based; details: Pseudomonas aeruginosa
Text: as §1, §2

PAO1 + blaPDC E219K = experiment: MIC, broth microdilution; format: cell-based; details: Pseudomonas aeruginosa
Text: as §1, §2

PAO1 + blaPDC-1 (WT) = experiment: MIC, broth microdilution; format: cell-based; details: Pseudomonas aeruginosa, avibactam and tazobactam fixed at 4 mg/L, FDC in iron-depleted CAMHB
Text: as §1, §2

PAO1 + blaPDC E219D = experiment: MIC, broth microdilution; format: cell-based; details: Pseudomonas aeruginosa
Text: as §1, §2

PAO1 + blaPDC P215S = experiment: MIC, broth microdilution; format: cell-based; details: Pseudomonas aeruginosa
Text: as §1, §2

PAO1 + blaPDC G214R = experiment: MIC, broth microdilution; format: cell-based; details: Pseudomonas aeruginosa
Text: as §1, §2

[2] = system: PAO1 + blaPDC F121L + E219K; experiment: MIC, broth microdilution; format: cell-based; details: Pseudomonas aeruginosa
Text: as §1, §2

PAO1 = experiment: MIC, broth microdilution; format: cell-based; details: Pseudomonas aeruginosa; PAO1 wild type, no plasmid-borne PDC; avibactam and tazobactam fixed at 4 mg/L; FDC in iron-depleted CAMHB
Text: as §1, §2

PDC E219K = PDC E219K (Pseudomonas aeruginosa, UniProt P24735, E247K); experiment: Steady-state kinetics of purified β-lactamase; details: for kcat: direct hydrolysis at substrate concentration at least three times the Km; for Ratio for PDC E219K/PDC-1: ratio of kcat/Km (fold change in catalytic efficiency)
[3] = system: E219K or L293P substitutions combined with inactivating mutations affecting iron uptake (∆piuC); experiment: MIC, E219K or L293P with impaired iron uptake; format: cell-based; details: Pseudomonas aeruginosa
Text: as §1
as §2, with “Reference strains Escherichia coli ATCC 25922, Klebsiella pneumoniae ATCC 700603, and P. aeruginosa ATCC 27853 were used as controls.” left out

[4] = system: PAO1 producing the Ω-loop variants ∆P215-G222, E219K, and F121L + E219K; experiment: MIC, group of Ω-loop variants in PAO1; format: cell-based; details: Pseudomonas aeruginosa; range over PAO1 producing ∆P215-G222, E219K and F121L + E219K
Text: as §1
as §2, with “Reference strains Escherichia coli ATCC 25922, Klebsiella pneumoniae ATCC 700603, and P. aeruginosa ATCC 27853 were used as controls.” left out

SMILES: CC(C)(O/N=C(\C(=O)N[C@@H]1C(=O)N2C(C(=O)[O-])=C(C[N+]3(CCNC(=O)c4ccc(O)c(O)c4Cl)CCCC3)CS[C@H]12)c1csc(N)n1)C(=O)O [FDC, cefiderocol]
- increase in catalytic efficiency [1]: ≈ 19 fold
- MIC (PAO1 + blaPDC P215L): 0.5 mg/L (≈ 0.665 µM)
- MIC (PAO1 + blaPDC ∆P215-G222): 2 mg/L
- MIC (PAO1 + blaPDC G156D): 0.5 mg/L (≈ 0.665 µM)
- MIC (PAO1 + blaPDC T70I): 0.5 mg/L (≈ 0.665 µM)
- MIC (PAO1 + blaPDC E219K): 4 mg/L (≈ 5.32 µM)
- MIC (PAO1 + blaPDC-1 (WT)): 0.25 mg/L
- MIC (PAO1 + blaPDC E219D): 0.5 mg/L (≈ 0.665 µM)
- MIC (PAO1 + blaPDC P215S): 0.5 mg/L (≈ 0.665 µM)
- MIC (PAO1 + blaPDC G214R): 1 mg/L (≈ 1.33 µM)
- MIC [2]: 4 mg/L (≈ 5.32 µM)
- MIC (PAO1): 0.125 mg/L
- increase in kcat values (PDC E219K; PDC E219K relative to PDC-1): ≈ 125 fold
- Km (PDC E219K; PDC E219K, antibiotics: determined as Ki app with nitrocefin as reporter substrate, 10 mM PBS, pH 7.4, room temperature): 466 ± 120 µM
- kcat (PDC E219K; PDC E219K, 10 mM PBS, pH 7.4, room temperature, listed as Cefiderocol): 0.45 ± 0.03 s⁻¹
- kcat (PDC E219K; PDC E219K, 10 mM PBS, pH 7.4, room temperature, listed as cefiderocol): 0.45 s⁻¹
- Ratio for PDC E219K/PDC-1 (PDC E219K; listed as Cefiderocol): 24.00
- Ratio for PDC E219K/PDC-1 (PDC E219K; listed as cefiderocol): ≈ 24
- MIC [3]: ≥ 32 mg/L
- MIC [4]: 2 to 4 mg/L
